pIC50: −log10 of the molar value. Where two headings read alike, the source gives them in different places.
How the values were obtained:
native hMBP = target: T1, native hMBP (Homo sapiens, UniProt P11226); assay: Sugar inhibition of native hMBP binding to mannan (ELISA)
T1 construct: samples of stepwise dilution of the native hMBP, rhMBP (cultured with vitamin C), rhMBP (cultured without vitamin C)

rhMBP (with Vitamin C) = target: T2, rhMBP (with Vitamin C) (Homo sapiens, UniProt P11226); assay: Sugar inhibition of rhMBP (cultured with vitamin C) binding to mannan (ELISA)
T2 construct: made in house; host or cells: CHO DG44 (dhfr-), neomycin/MTX-resistant clones; purified from culture supernatant on mannan-agarose

[1] = target: T3, rhMBP (without Vitamin C) (Homo sapiens, UniProt P11226); assay: Sugar inhibition of rhMBP (cultured without vitamin C) binding to mannan (ELISA)
T3 construct: made in house; host or cells: CHO DG44 (dhfr-), neomycin/MTX-resistant clones; purified from culture supernatant on mannan-agarose

[2] = system: Influenza A virus A/Ibaraki/l/90 (H3N2); assay: Hemagglutination Inhibition (HI) activities; format: cell-based; conditions: for Minimum Protein Concentration for HI Activities: 16HAU virus, chicken erythrocytes
[3] = Sugar binding activity of MBP on mannan-coated plates (ELISA); conditions: Table 1
Description: Microtiter Plates were treated with 100 μl of coating buffer (15 mM sodium carbonate, 35 mM sodium hydrogen carbonate, 0.05% sodium azide, pH 9.6) containing mannan (10 μg/ml:SIGMA) at 4° C. overnight. After each treatment step, the plates were washed three times with TBSNTC solution (TBS, 0.05% sodium azide, 0.05% TWEEN 20 (Registered Trade Mark), 5 mM calcium chloride). After completing the coating of the plates, the plates were treated and blocked with BLOCKACE™ blocking solution (Dainippon Pharmaceutical) at room temperature for one hour.
After washing them, samples of stepwise dilution of the native hMBP, rhMBP (cultured with vitamin C), rhMBP (cultured without vitamin C) having the concentration of 200, 100, 50, 25, 12.5, 6.25 ng/ml, combination samples of 200 ng/ml of each hMBP with EDTA added to be its concentration of 10 mM, and combination samples of 50 ng/ml of each hMBP with mannose added to be its concentration of 100 mM were prepared, thereafter, 100 μl of each of them were poured into each well and were incubated at 37° C. for one hour. […] After incubating them at room temperature for 30 minutes, 100 μl of 1M phosphoric acid were added thereto, and their absorbance were measured at 450 nm (Model 450 Microplate Reader; Bio-Rad). […]

[4] = system: Influenza A virus A/Ibaraki/l/90; assay: Neutralization activities (focus reduction on MDCK cells); format: cell-based
[5] = system: HIV-1 (HIV-gp120, HIV-gp160); assay: Binding of rhMBP to blotted viral structural proteins: HIV-1; conditions: rhMBP 1.0 μg/ml; FIG. 20
Description: (§1) Binding activities on rhMBP to HIV-1, HBV and Influenza A virus were determined by electrophoresing the following viral structural proteins, transferring them to membranes, binding thereto rhMBP and detecting them with labeled antibody.
(§2) Necessary amounts of viral structural proteins for the electrophoresis were 0.25 μg of HIV-gp120 (HIVIIIB-gp120) (ADVANCED BIOTECHNOLOGIES INCORPORATED (ABI)), 0.25 μg of HIV-gp160 (HIVIIIB-gp160) (ABI), 10 μg of HBS (Hepatitis B Surface Antigen (HBsAg) (ABI), Subtype ad), Influenza A virus (IAV; presented by The Research Foundation For Osaka University Research Institute for Microbial Diseases), 5 μg of H1N1 Yamagata virion and 5 μg of H3N2 Beijin virion.
(§3) SDS-PAGE employed polyacrylamide gel having the concentration gradient of 4˜20%, and HIV-1 and HBS were electrophoresed under reducing condition. After the electrophoresis, they were transferred to Immobilon-P^SQ transfer membrane (Millipore) with NOVA BLOT™ electrophoretic transfer unit (Pharmacia) by using semi-dry electroblot buffer kit (Owl Scientific). After such transfer, they were blocked with BLOCKACE™ blocking solution (Dainippon Pharmaceutical) at room temperature for one hour. […]

[6] = system: HBV (Hepatitis B Surface Antigen); assay: Binding of rhMBP to blotted viral structural proteins: HBV; conditions: rhMBP 1.0 μg/ml; FIG. 20
Description: as §1, §2, §3

[7] = system: Influenza A virus (H1N1 Yamagata virion, H3N2 Beijin virion); assay: Binding of rhMBP to blotted viral structural proteins: Influenza A virus; conditions: rhMBP 1.0 μg/ml; FIG. 20
Description: as §1, §2, §3

[8] = system: Influenza A virus A/Ibaraki/1/90; format: cell-based; conditions: 0.5 and 1 μg/ml, three days; FIG. 21
guinea pig complement = assay: Complement activation: hemolysis of mannan-sensitized sheep erythrocyte
[9] = native hMBP, mannan-coated microtiter plates, read-out: I 50: Sugar concentration to halve binding activities with mannan
[10] = rhMBP (with Vitamin C), mannan-coated microtiter plates, read-out: I 50: Sugar concentration to halve binding activities with mannan
[11] = rhMBP (without Vitamin C), mannan-coated microtiter plates, read-out: I 50: Sugar concentration to halve binding activities with mannan

T2 sequence (P11226 21-248): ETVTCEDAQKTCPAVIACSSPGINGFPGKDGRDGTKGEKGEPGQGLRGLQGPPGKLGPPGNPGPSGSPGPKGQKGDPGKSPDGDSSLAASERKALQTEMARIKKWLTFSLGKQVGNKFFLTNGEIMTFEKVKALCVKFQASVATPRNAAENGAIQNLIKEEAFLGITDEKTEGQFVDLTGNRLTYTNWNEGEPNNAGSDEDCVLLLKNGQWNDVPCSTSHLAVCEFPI
T1 sequence (P11226 21-248): as above
T3 sequence (P11226 21-248): as above

| Compound | pIC50 (native hMBP; [9]) | pIC50 (rhMBP (with Vitamin C); [10]) | pIC50 [1, 11] | also measured |
| --- | --- | --- | --- | --- |
| C[C@@H](O)[C@H](O)[C@H](O)[C@@H](O)C=O [D-Fucose] | 1.47 | 1.41 | 1.06 | – |
| O=C[C@@H](O)[C@@H](O)[C@H](O)[C@H](O)CO [D-Mannose] | – | – | – | pIC50 (native hMBP): 2.43; pIC50 (rhMBP (with Vitamin C)): 2.17; pIC50 [1]: 2.17 |
| O=C[C@H](O)[C@@H](O)[C@@H](O)[C@H](O)CO [Galactose] | – | – | – | pIC50 (native hMBP): 1.62; pIC50 (rhMBP (with Vitamin C)): 1.53; pIC50 [1]: 1.44 |
| C[C@H](O)[C@@H](O)[C@@H](O)[C@H](O)C=O [L-Fucose] | 2.38 | 2.36 | 2.06 | – |
| OC[C@H]1O[C@@H](O[C@H]2[C@H](O)[C@@H](O)C(O)O[C@@H]2CO)[C@H](O)[C@@H](O)[C@H]1O (stereo partly shown) [Lactose] | 1.44 | 1.33 | 1.23 | – |
| OC[C@H]1O[C@H](O[C@H]2[C@H](O)[C@@H](O)[C@H](O)O[C@@H]2CO)[C@H](O)[C@@H](O)[C@@H]1O [Maltose] | 2.13 | 2.19 | 2.13 | – |
| CC(=O)N[C@H]1C(O)O[C@H](CO)[C@H](O)[C@@H]1O (stereo partly drawn) [N-Acetyl-D-Galactosamine] | < 1.00 | < 1.00 | < 1.00 | – |
| CC(=O)N[C@H]1C(O)O[C@H](CO)[C@@H](O)[C@@H]1O (stereo partly drawn) [N-Acetyl-D-Glucosamine] | 2.57 | 2.44 | 2.42 | – |
| CC(=O)N[C@@H]1C(O)O[C@H](CO)[C@@H](O)[C@@H]1O (stereo partly drawn) [N-Acetyl-D-Mannosamine] | 2.36 | 2.16 | 2.16 | – |
| native hMBP: natural Human Mannan-Binding Protein, used as comparator | – | – | – | Minimum Protein Concentration for HI Activities [2]: 40 ng/mL |
| rhMBP (with Vitamin C): rhMBP from CHO clone cultured in medium with vitamin C added | – | – | – | Minimum Protein Concentration for HI Activities [2]: 80 ng/mL |
| rhMBP (without Vitamin C): rhMBP from CHO clone cultured in medium without vitamin C | – | – | – | Minimum Protein Concentration for HI Activities [2]: 80 ng/mL |
| rhMBP: recombinant human Mannan-Binding Protein expressed from pNOW1-hMBP in dhfr- CHO cells, purified on mannan-agarose | – | – | – | Sugar binding specificities compared with native hMBP [3]: substantially identical to those by the native hMBP; Hemagglutination Inhibition (HI) activities compared with native hMBP ([2]; Table 2 and FIG. 18): not inferior to that by native hMBP; Neutralization activities on addition of mannose ([4]; 100 mM mannose): inhibited by addition of mannose; Neutralization activities for influenza virus (reduction rate of FFU) ([4]; FIG. 19, MDCK cells): had neutralization activities for influenza virus; Binding activities to HIV-1 [5]: have binding activities; Binding activities to HBV [6]: have binding activities; Binding activities to Influenza A virus [7]: have binding activities; Viral growth inhibition (gross area of virus-infected focus) [8]: reduced focus area infected by influenza viruses concentration-dependently; Hemolysis of sensitized sheep erythrocyte (complement activation) (guinea pig complement; 1, 10, 100 and 1000 ng/tube, FIG. 22): hemolyzed concentration-dependently sensitized sheep erythrocyte substantially like the native hMBP; Complement activation on addition of mannose (guinea pig complement; mannose added): suppressed by an addition of mannose |

— US7572890B2, “Recombinant human mannan-building proteins” (Fuso Pharmaceutical Industries, Ltd., priority 1998, dated 2009)
